Test results: patent publication US4496587A, “Inhibition of bacterial toxin release by prostaglandins” (priority 1983, dated 1985)

Legend:
[1] = tested on: C. difficile; test: cytotoxin in filtrates of C. difficile cultures grown in the presence of prostaglandin (Prostaglandin Incubated with C. difficile), titrated on HFF mono-layers; format: cell-based; conditions: for effectiveness as an antitoxic prostaglandin: by itself, in words; for decrease of the amount of toxin released from C. difficile: assay described in Example 1, pharmacologically practical amount, definition of antitoxic prostaglandin
Protocol: (§1) Forty-five filtrates of C. difficile cultures grown in the presence of different concentrations of 16,16-dimethyl-PGE2 were assayed for cytotoxin. (ATCC 9689 stands for American Type Culture Collection number 9689, and patients 1, 2, 3, and 4 refer to cultures extracted from various hospital patients.) The first 25 cultures were incubated with the prostaglandin (in the concentrations noted) for 24 hr. These cultures were then filtered and the supernate was submitted for cytotoxicity testing. The remaining 20 cultures were incubated without prostaglandin, filtered and then the prostaglandin was added to each supernate prior to cytotoxicity testing. The cytotoxin assay utilized human skin fibroblasts (HFF) as mono-layers in Costar 24 well-trays. The results are presented as the reciprocal of the cytotoxin dilution (serial 10-fold) causing altered cell morphology for 50% of the cells in the mono-layer. (see Table II.) Thus, 1000 means that a 1:1000 dilution of the filtrate caused an altered cell morphology for 50% of the cells in the mono-layer. Therefore, the higher the number, the more cytotoxin is present.

[2] = by acid in the stomach; cited from earlier work
[3] = tested on: Human skin fibroblasts (HFF); test: attempted protection of HFF from cytotoxins from different sources (altered cell morphology); format: cell-based
Protocol: To determine whether the presence of 16,16-dimethyl-PGE2 might interfere with the cytotoxin assay, several concentrations of cytotoxins were assayed in the presence of various concentrations of a prostaglandin.
The cytotoxins used were from hamster cecum, a filtrate of C. difficile broth culture, and the filtate of human feces from a patient with "antibiotic diarrhea". Serial 10-fold dilutions of the cytotoxins were prepared in BME-3% fbs. (BME 3% fbs is basal medium of Eagle with 3% fetal bovine (BOVINE Serum and antibiotics.))
16,16-Dimethyl-PGE2 (5 mg/ml in absolute ethanol) was used and further diluted in absolute ethanol.
Human skin fibroblasts (HFF) monolayers in wells of Costar trays (24 well) were refed with 0.8 ml BME-3% fbs. 0.1 ml of the various prostaglandin concentrations and absolute ethanol alone were added to the appropriate wells. Separate wells were then treated with (0.1 ml) of the appropriate dilution of each cytotoxin. The trays were incubated at 37° and examined microscopically for evidence of altered cell morphology.
Attempted protection of HFF from cytotoxins from different
sources by 16,16-dimethyl-PGE2. The results are expressed as the
number of cells showing evidence of altered morphology due to
cytotoxin. (0 = no change, +1 = 25% of the cells are rounded,
+ 2 = 50% of the cells are rounded, +3 = 75% of the cells are
rounded, and +4 = 100% of the cells are rounded. Tox =
toxic concentration of prostaglandin.)

[4] = tested on: C. difficile; test: cytotoxin assay, prostaglandin added to supernate after incubation of C. difficile (Prostaglandin Added After Incubation), titrated on HFF mono-layers; format: cell-based
Protocol: as §1

CCCCC[C@@](C)(O)/C=C/[C@H]1[C@H](O)CC(=O)[C@@H]1C/C=C\CCCC(=O)O [15(R)-15-methyl-PGE2]
effectiveness as an antitoxic prostaglandin [1]: not highly effective
conversion in mammalian metabolism [2]: converted by acid in the stomach to 15(S)-15-methyl-PGE2

CCCCC[C@](C)(O)/C=C/[C@H]1[C@H](O)CC(=O)[C@@H]1C/C=C\CCCC(=O)O [15(S)-15-methyl-PGE2]
decrease of the amount of toxin released from C. difficile [1]: at least 90%
effectiveness as an antitoxic prostaglandin [1]: effective

CCCCC(C)(C)[C@@](C)(O)/C=C/[C@H]1[C@H](O)CC(=O)[C@@H]1C/C=C\CCCC(=O)O [15(S)-16,16-trimethyl-PGE2]
decrease of the amount of toxin released from C. difficile [1]: at least 90%

CCCCC(C)(C)[C@H](O)/C=C/[C@H]1[C@H](O)CC(=O)[C@@H]1C/C=C\CCCC(=O)O [16,16-dimethyl-PGE2]
cells showing evidence of altered morphology due to cytotoxin ([3]; C. difficile filtrate 1:10, prostaglandin 0.01 mcg/ml): 4
cells showing evidence of altered morphology due to cytotoxin ([3]; C. difficile filtrate 1:10, prostaglandin 0.1 mcg/ml): 4
cells showing evidence of altered morphology due to cytotoxin ([3]; C. difficile filtrate 1:10, prostaglandin 1 mcg/ml): 4
cells showing evidence of altered morphology due to cytotoxin ([3]; C. difficile filtrate 1:10, prostaglandin 10 mcg/ml): 4
cells showing evidence of altered morphology due to cytotoxin ([3]; C. difficile filtrate 1:100, prostaglandin 0.01 mcg/ml): 4
cells showing evidence of altered morphology due to cytotoxin ([3]; C. difficile filtrate 1:100, prostaglandin 0.1 mcg/ml): 4
cells showing evidence of altered morphology due to cytotoxin ([3]; C. difficile filtrate 1:100, prostaglandin 1 mcg/ml): 4
cells showing evidence of altered morphology due to cytotoxin ([3]; C. difficile filtrate 1:100, prostaglandin 10 mcg/ml): 4
cells showing evidence of altered morphology due to cytotoxin ([3]; C. difficile filtrate 1:1000, prostaglandin 0.01 mcg/ml): 3
cells showing evidence of altered morphology due to cytotoxin ([3]; C. difficile filtrate 1:1000, prostaglandin 0.1 mcg/ml): 3
cells showing evidence of altered morphology due to cytotoxin ([3]; C. difficile filtrate 1:1000, prostaglandin 1 mcg/ml): 3
cells showing evidence of altered morphology due to cytotoxin ([3]; C. difficile filtrate 1:1000, prostaglandin 10 mcg/ml): 3
cells showing evidence of altered morphology due to cytotoxin ([3]; Human cytotoxin 1:10, prostaglandin 0.01 mcg/ml): 4
cells showing evidence of altered morphology due to cytotoxin ([3]; Human cytotoxin 1:10, prostaglandin 0.1 mcg/ml): 4
cells showing evidence of altered morphology due to cytotoxin ([3]; Human cytotoxin 1:10, prostaglandin 1 mcg/ml): 4
cells showing evidence of altered morphology due to cytotoxin ([3]; Human cytotoxin 1:10, prostaglandin 10 mcg/ml): 4
cells showing evidence of altered morphology due to cytotoxin ([3]; Human cytotoxin 1:100, prostaglandin 0.01 mcg/ml): 4
cells showing evidence of altered morphology due to cytotoxin ([3]; Human cytotoxin 1:100, prostaglandin 0.1 mcg/ml): 4
cells showing evidence of altered morphology due to cytotoxin ([3]; Human cytotoxin 1:100, prostaglandin 1 mcg/ml): 4
cells showing evidence of altered morphology due to cytotoxin ([3]; Human cytotoxin 1:100, prostaglandin 10 mcg/ml): 3
cells showing evidence of altered morphology due to cytotoxin ([3]; Human cytotoxin 1:1000, prostaglandin 0.01 mcg/ml): 1
cells showing evidence of altered morphology due to cytotoxin ([3]; Human cytotoxin 1:1000, prostaglandin 0.1 mcg/ml): 1
cells showing evidence of altered morphology due to cytotoxin ([3]; Human cytotoxin 1:1000, prostaglandin 1 mcg/ml): 1
cells showing evidence of altered morphology due to cytotoxin ([3]; Human cytotoxin 1:1000, prostaglandin 10 mcg/ml): 1
effect on the interaction of the cytotoxin with the cell ([3]; conclusion from Table III): did not affect the interaction of the cytotoxin with the cell
protecting fibroblasts from morphological changes due to the action of the cytotoxin ([3]; cytotoxins from three different sources): ineffective
Cytotoxin Dilution (reciprocal of the cytotoxin dilution causing altered cell morphology for 50% of the cells) ([1]; Control, 24 hr, prostaglandin 1 mcg/ml): < 10
Cytotoxin Dilution (reciprocal of the cytotoxin dilution causing altered cell morphology for 50% of the cells) ([1]; Control, 24 hr, prostaglandin 10 mcg/ml): < 10
Cytotoxin Dilution (reciprocal of the cytotoxin dilution causing altered cell morphology for 50% of the cells) ([1]; Control, 24 hr, prostaglandin 50 mcg/ml): < 10
amount of toxin with increasing amount of prostaglandin ([1]; Table II overall): as the amount of prostaglandin increases, the amount of toxin decreases
decrease of the amount of toxin released from C. difficile [1]: at least 90%
Cytotoxin Dilution (reciprocal of the cytotoxin dilution causing altered cell morphology for 50% of the cells) ([1]; incubated with C. difficile ATCC #9689, 24 hr, prostaglandin 1 mcg/ml): 100-1000
Cytotoxin Dilution (reciprocal of the cytotoxin dilution causing altered cell morphology for 50% of the cells) ([1]; incubated with C. difficile ATCC #9689, 24 hr, prostaglandin 10 mcg/ml): 100
Cytotoxin Dilution (reciprocal of the cytotoxin dilution causing altered cell morphology for 50% of the cells) ([1]; incubated with C. difficile ATCC #9689, 24 hr, prostaglandin 50 mcg/ml): 10
Cytotoxin Dilution (reciprocal of the cytotoxin dilution causing altered cell morphology for 50% of the cells) ([1]; incubated with C. difficile strain Patient 1, 24 hr, prostaglandin 1 mcg/ml): 100-1000
Cytotoxin Dilution (reciprocal of the cytotoxin dilution causing altered cell morphology for 50% of the cells) ([1]; incubated with C. difficile strain Patient 1, 24 hr, prostaglandin 10 mcg/ml): 10
Cytotoxin Dilution (reciprocal of the cytotoxin dilution causing altered cell morphology for 50% of the cells) ([1]; incubated with C. difficile strain Patient 1, 24 hr, prostaglandin 50 mcg/ml): 10
Cytotoxin Dilution (reciprocal of the cytotoxin dilution causing altered cell morphology for 50% of the cells) ([1]; incubated with C. difficile strain Patient 2, 24 hr, prostaglandin 1 mcg/ml): 10-100
Cytotoxin Dilution (reciprocal of the cytotoxin dilution causing altered cell morphology for 50% of the cells) ([1]; incubated with C. difficile strain Patient 2, 24 hr, prostaglandin 10 mcg/ml): 10-100
Cytotoxin Dilution (reciprocal of the cytotoxin dilution causing altered cell morphology for 50% of the cells) ([1]; incubated with C. difficile strain Patient 2, 24 hr, prostaglandin 50 mcg/ml): < 10
Cytotoxin Dilution (reciprocal of the cytotoxin dilution causing altered cell morphology for 50% of the cells) ([1]; incubated with C. difficile strain Patient 3, 24 hr, prostaglandin 1 mcg/ml): < 10
Cytotoxin Dilution (reciprocal of the cytotoxin dilution causing altered cell morphology for 50% of the cells) ([1]; incubated with C. difficile strain Patient 3, 24 hr, prostaglandin 10 mcg/ml): < 10
Cytotoxin Dilution (reciprocal of the cytotoxin dilution causing altered cell morphology for 50% of the cells) ([1]; incubated with C. difficile strain Patient 3, 24 hr, prostaglandin 50 mcg/ml): < 10
Cytotoxin Dilution (reciprocal of the cytotoxin dilution causing altered cell morphology for 50% of the cells) ([1]; incubated with C. difficile strain Patient 4, 24 hr, prostaglandin 1 mcg/ml): 100
Cytotoxin Dilution (reciprocal of the cytotoxin dilution causing altered cell morphology for 50% of the cells) ([1]; incubated with C. difficile strain Patient 4, 24 hr, prostaglandin 10 mcg/ml): 10-100
Cytotoxin Dilution (reciprocal of the cytotoxin dilution causing altered cell morphology for 50% of the cells) ([1]; incubated with C. difficile strain Patient 4, 24 hr, prostaglandin 50 mcg/ml): 10
Cytotoxin Dilution (reciprocal of the cytotoxin dilution causing altered cell morphology for 50% of the cells) ([4]; ATCC #9689, prostaglandin 1 mcg/ml): 100-1000
Cytotoxin Dilution (reciprocal of the cytotoxin dilution causing altered cell morphology for 50% of the cells) ([4]; ATCC #9689, prostaglandin 10 mcg/ml): 10-100
Cytotoxin Dilution (reciprocal of the cytotoxin dilution causing altered cell morphology for 50% of the cells) ([4]; ATCC #9689, prostaglandin 50 mcg/ml): 10
Cytotoxin Dilution (reciprocal of the cytotoxin dilution causing altered cell morphology for 50% of the cells) ([4]; Patient 1, prostaglandin 1 mcg/ml): 1000
Cytotoxin Dilution (reciprocal of the cytotoxin dilution causing altered cell morphology for 50% of the cells) ([4]; Patient 1, prostaglandin 10 mcg/ml): < 100
Cytotoxin Dilution (reciprocal of the cytotoxin dilution causing altered cell morphology for 50% of the cells) ([4]; Patient 1, prostaglandin 50 mcg/ml): 100
Cytotoxin Dilution (reciprocal of the cytotoxin dilution causing altered cell morphology for 50% of the cells) ([4]; Patient 2, prostaglandin 1 mcg/ml): 10
Cytotoxin Dilution (reciprocal of the cytotoxin dilution causing altered cell morphology for 50% of the cells) ([4]; Patient 2, prostaglandin 10 mcg/ml): 10
Cytotoxin Dilution (reciprocal of the cytotoxin dilution causing altered cell morphology for 50% of the cells) ([4]; Patient 2, prostaglandin 50 mcg/ml): < 10
Cytotoxin Dilution (reciprocal of the cytotoxin dilution causing altered cell morphology for 50% of the cells) ([4]; Patient 3, prostaglandin 1 mcg/ml): < 10
Cytotoxin Dilution (reciprocal of the cytotoxin dilution causing altered cell morphology for 50% of the cells) ([4]; Patient 3, prostaglandin 10 mcg/ml): < 10
Cytotoxin Dilution (reciprocal of the cytotoxin dilution causing altered cell morphology for 50% of the cells) ([4]; Patient 4, prostaglandin 1 mcg/ml): 100-1000
Cytotoxin Dilution (reciprocal of the cytotoxin dilution causing altered cell morphology for 50% of the cells) ([4]; Patient 4, prostaglandin 10 mcg/ml): 100
Cytotoxin Dilution (reciprocal of the cytotoxin dilution causing altered cell morphology for 50% of the cells) ([4]; Patient 4, prostaglandin 50 mcg/ml): 10-100
